This note sets out measurements from patent US20240101667A1, “METHODS FOR IDENTIFYING LILRB-BLOCKING ANTIBODIES” (THE BOARD OF REGENTS OF THE UNIVERSITY OF TEXAS SYSTEM, priority 2020, published 2024).

Where a SMILES comes first, the peptide text is derived from it. The star is where a group is joined. Cbz = O=C(OCc1ccccc1)*; CH2F = FC*

What all share (assay type): cell-based, human
The subject of test [1] is THP-1, Molm13, MV4 AML cells. The test can be described thus: AML cell death / growth in plates coated with anti-LILRB3 (PI staining). The following applies: QNZ 10 μM. Here is the method: Cell culture. THP-1, MV4-11, Molm13, U937, C1498 and 293T cells were purchased from ATCC. AML cell lines were cultured in RPMI-1640 with 10% FBS. Human anti-LILRB3 with the N297A mutation was coated onto the plate to activate LILRB3 signaling, and plates coated with human IgG (N297A) were used as controls. Cells infected with virus were cultured for at least an additional 3 weeks before analysis of LILRB3 signaling. Dead cells were identified using PI staining. Primary human T cells were isolated by autoMACS from donor PBMCs, stimulated with anti-CD3 and anti-CD28, and cultured in RPMI-1640 in the presence of IL-2. For the cytotoxic T lymphocyte assay, human AML cells were stained with CFSE and mixed at different ratios with activated T cells. After 10 hours, the percentage of PI-positive CFSE-stained AML cells was determined by FACS.

For test [2], the system named is NF-κB signaling. The test can be described thus: NF-κB reporter assay in THP-1-Lucia NF-κB cells. The settings on record: for NF-κB reporter activity activated by LILRB3: THP-1-Lucia cells activated with anti-LILRB3 antibody. Here is the method: (§1) NF-κB reporter assay and LILRB3 chimeric receptor reporter assay. THP-1-Lucia™ NF-κB cells were purchased from InvivoGen. Human anti-LILRB3 antibody with the N297A mutation was coated onto the plate to activate LILRB3 signaling, and plates coated with hIgG (N297A) were used as the control. The activation of NF-κB signaling was evaluated by monitoring luciferase signal. Infected THP-1 reporter cells were cultured for an additional month before stimulation with anti-LILRB3. For the NF-κB reporter assay conducted in 293T cells, an NF-κB-driven firefly luciferase reporter plasmid co-transfected with a plasmid encoding CMV-driven Renilla luciferase along with plasmids expressing LILRB3, TRAF2, or cFLIP were transfected into cells. The luciferase activity was detected using the Dual-Luciferase® Reporter (DLR™) Assay System (Promega). LILRB3 chimeric receptor reporter cells were constructed as the inventors described (Deng et al., 2014; 2018; Kang et al., 2015), with LILRB3-ECD fused with the transmembrane and intracellular domains of paired immunoglobulin-like receptor β, which signals through the adaptor DAP-12 to activate the NFAT promoter.
A general note: In a reporter assay the amount or activity of a reporter protein is the signal.

The test system of test [3] is NF-κB signaling. The test can be described thus: NF-κB reporter assay in 293T cells. Here is the method:
as §1

On to `Nc1ccc2ncnc(NCCc3ccc(Oc4ccccc4)cc3)c2c1` [QNZ], for which the “effect of LILRB3 on survival of THP-1 cells” value in test [1] is given as “partially abolished the effect of LILRB3 on survival of THP-1 cells”.

Regarding `CC[C@H](C)[C@H](NC(=O)OCc1ccccc1)C(=O)N[C@@H](CCC(=O)OC)C(=O)N[C@H](C(=O)N[C@@H](CC(=O)OC)C(=O)CF)[C@@H](C)O` [z-IETD-FMK] (Cbz-IE(OMe)TD(OMe)-CH2F), the “NF-κB reporter activity activated by LILRB3” value in test [2] is given as “inhibited the NF-κB reporter activity”.

`COC(=O)C[C@H](NC(=O)[C@H](C)NC(=O)[C@@H](NC(=O)OCc1ccccc1)C(C)C)C(=O)CF` [z-VAD-FMK] (Cbz-Val-Ala-Asp(OMe)-CH2F): the “NF-κB reporter activity activated by LILRB3” value in test [2] is “inhibited the NF-κB reporter activity”. For the same compound, the “LILRB3-induced NF-κB at low concentration of LPS” value in test [2] (THP-1 cells) is listed as “blocked LILRB3-induced NF-κB”. Further, the “ability of LILRB3 to stimulate NF-κB through TRAF2” value in test [3] (293T cells co-transfected with TRAF2 or LILRB3) was “blocked the ability of LILRB3 to stimulate NF-κB through TRAF2”. Further, the “LILRB3-induced NF-κB activity in 293T cells” value in test [3] (tet-on cFLIP, 0.2 ug/ml of dox) was “blocked LILRB3-induced NF-κB activity”.
